System: Energy system protein genes
Test: DNA chip mRNA expression in yeast, energy system protein genes (Table 4)
Assay type: cell-based, Saccharomyces cerevisiae S288C
Method: Yeast (Saccharomyces cerevisiae S288C (α SUC2mal mel gap2 CUP1)) were incubated at 25° C. on YPD medium (yeast extract 1%, polypepton 2%, glucose 2%). One of toxic chemical substances was added to the cells at logarithmic growth phase, and the cells were further incubated for two hours. Cells were cultured without any chemical substance in the same condition, and were used as control. Concentrations of the chemical substances were defined to inhibit the growth of the yeast but not lead to death.
After completion of the incubation, the culture was centrifuged to collect the cells. To the cells, sodium acetate buffer (50 mM sodium acetate, 10 mM EDTA, 1% SDS) was added, and the mixture was shaken at 65° C. for five minutes, followed by returning to room temperature, and obtaining the supernatant, of which the procedures were repeated two times. To the supernatant, ½ amount of a solution of phenol/chloroform was added, and the mixture was centrifuged to give a supernatant, which was added with an equal amount of chloroform, and the mixture was centrifuged to give a supernatant. To the supernatant, an equal amount of isopropanol containing 0.3 M sodium acetate was added, and the mixture was allowed to stand at room temperature for 30 minutes, after which the mixture was centrifuged to give a sediment of the whole RNAs. Seventy % ethanol was added to the sediment, and the mixture was again centrifuged to give a sediment, which was then dried and dissolved in water. mRNA was isolated from the whole RNAs as followings. In view of the fact that a poly A chain is attached to the 3′ terminus of mRNA, a polynucleotide having a poly T structure which was immobilized on the surface of latex beads was used to trap the mRNA, and then the mRNA was washed and eluted with spine column (Oligotex-dT30<Super>mRNA Purification Kit, Takara). Reverse transcription of the mRNA was conducted with a reverse transcriptase (Super Script II Reverse Transcriptase; catalogue No. 18064-014, GibcoBRL) using fluorescence-labeled nucleotides to give cDNAs that were introduced with Cy3-dUTP or Cy5-dUTP during the reverse transcription.
The labeled cDNAs were dissolved in TE buffer (10mM Tris-HCl/1 mM EDTA, pH8.0), and the solution was dropped on the DNA chip containing the whole genes of yeast (DNA Chip Research Inc. Japan) so that the cDNAs were hybridized on the DNA chip at 65° C. for over 12 hours. The fluoresces intensity of the DNA chip was read with a scanner, and the ratio relative to the fluorescence intensity resulting from the absence of chemical substance was estimated as the following, which is shown in Tables 1 to 9: […]

## [Cl][Cd][Cl] [(2), CdCl2]
Yeast gene YJR048W
  The level of expressed mRNA in the presence of chemical substance/The level of expressed mRNA in the absence of chemical substance: 0.9
Yeast gene YJR121W, cells incubated two hours with the chemical substance
  The level of expressed mRNA in the presence of chemical substance/The level of expressed mRNA in the absence of chemical substance: 1.1
Yeast gene YJR155W
  The level of expressed mRNA in the presence of chemical substance/The level of expressed mRNA in the absence of chemical substance: 3.7
Yeast gene YKL016C, cells incubated two hours with the chemical substance
  The level of expressed mRNA in the presence of chemical substance/The level of expressed mRNA in the absence of chemical substance: 1.3
Yeast gene YKL060C, cells incubated two hours with the chemical substance
  The level of expressed mRNA in the presence of chemical substance/The level of expressed mRNA in the absence of chemical substance: 0.8
Yeast gene YKL141W, cells incubated two hours with the chemical substance
  The level of expressed mRNA in the presence of chemical substance/The level of expressed mRNA in the absence of chemical substance: 1.1
Yeast gene YKL148C, cells incubated two hours with the chemical substance
  The level of expressed mRNA in the presence of chemical substance/The level of expressed mRNA in the absence of chemical substance: 0.8
Yeast gene YKR009C, cells incubated two hours with the chemical substance
  The level of expressed mRNA in the presence of chemical substance/The level of expressed mRNA in the absence of chemical substance: 1.2
Yeast gene YKR058W, cells incubated two hours with the chemical substance, 25° C., YPD medium
  The level of expressed mRNA in the presence of chemical substance/The level of expressed mRNA in the absence of chemical substance: 0.9
Yeast gene YKR097W
  The level of expressed mRNA in the presence of chemical substance/The level of expressed mRNA in the absence of chemical substance: 2.4
Yeast gene YLL041C, cells incubated two hours with the chemical substance
  The level of expressed mRNA in the presence of chemical substance/The level of expressed mRNA in the absence of chemical substance: 0.5
Yeast gene YLR038C, cells incubated two hours with the chemical substance
  The level of expressed mRNA in the presence of chemical substance/The level of expressed mRNA in the absence of chemical substance: 1.1
Yeast gene YLR044C, cells incubated two hours with the chemical substance
  The level of expressed mRNA in the presence of chemical substance/The level of expressed mRNA in the absence of chemical substance: 0.6
Yeast gene YLR134W, cells incubated two hours with the chemical substance
  The level of expressed mRNA in the presence of chemical substance/The level of expressed mRNA in the absence of chemical substance: 0.6
Yeast gene YLR258W, cells incubated two hours with the chemical substance
  The level of expressed mRNA in the presence of chemical substance/The level of expressed mRNA in the absence of chemical substance: 1.0
Yeast gene YLR284C, cells incubated two hours with the chemical substance
  The level of expressed mRNA in the presence of chemical substance/The level of expressed mRNA in the absence of chemical substance: 1.0
Yeast gene YLR295C, cells incubated two hours with the chemical substance, 25° C., YPD medium
  The level of expressed mRNA in the presence of chemical substance/The level of expressed mRNA in the absence of chemical substance: 1.1
Yeast gene YLR304C, cells incubated two hours with the chemical substance
  The level of expressed mRNA in the presence of chemical substance/The level of expressed mRNA in the absence of chemical substance: 0.6
Yeast gene YLR345W
  The level of expressed mRNA in the presence of chemical substance/The level of expressed mRNA in the absence of chemical substance: 1.4
Yeast gene YLR354C, cells incubated two hours with the chemical substance
  The level of expressed mRNA in the presence of chemical substance/The level of expressed mRNA in the absence of chemical substance: 2.5
Yeast gene YLR377C, cells incubated two hours with the chemical substance
  The level of expressed mRNA in the presence of chemical substance/The level of expressed mRNA in the absence of chemical substance: 2.6
Yeast gene YLR395C, cells incubated two hours with the chemical substance
  The level of expressed mRNA in the presence of chemical substance/The level of expressed mRNA in the absence of chemical substance: 1.3
Yeast gene YML087C
  The level of expressed mRNA in the presence of chemical substance/The level of expressed mRNA in the absence of chemical substance: 1.6
Yeast gene YML120C, cells incubated two hours with the chemical substance
  The level of expressed mRNA in the presence of chemical substance/The level of expressed mRNA in the absence of chemical substance: 1.2
Yeast gene YML129C, cells incubated two hours with the chemical substance
  The level of expressed mRNA in the presence of chemical substance/The level of expressed mRNA in the absence of chemical substance: 0.9
Yeast gene YMR073C, cells incubated two hours with the chemical substance
  The level of expressed mRNA in the presence of chemical substance/The level of expressed mRNA in the absence of chemical substance: 1.1
Yeast gene YMR118C
  The level of expressed mRNA in the presence of chemical substance/The level of expressed mRNA in the absence of chemical substance: 2.9
Yeast gene YMR205C, cells incubated two hours with the chemical substance
  The level of expressed mRNA in the presence of chemical substance/The level of expressed mRNA in the absence of chemical substance: 0.7
Yeast gene YMR261C, cells incubated two hours with the chemical substance
  The level of expressed mRNA in the presence of chemical substance/The level of expressed mRNA in the absence of chemical substance: 1.6
Yeast gene YMR267W, cells incubated two hours with the chemical substance, 25° C., YPD medium
  The level of expressed mRNA in the presence of chemical substance/The level of expressed mRNA in the absence of chemical substance: 1.8
Yeast gene YMR323W, cells incubated two hours with the chemical substance
  The level of expressed mRNA in the presence of chemical substance/The level of expressed mRNA in the absence of chemical substance: 1.1
Yeast gene YNL071W
  The level of expressed mRNA in the presence of chemical substance/The level of expressed mRNA in the absence of chemical substance: 0.9
Yeast gene YNL202W, cells incubated two hours with the chemical substance
  The level of expressed mRNA in the presence of chemical substance/The level of expressed mRNA in the absence of chemical substance: 1.3
Yeast gene YNL241C
  The level of expressed mRNA in the presence of chemical substance/The level of expressed mRNA in the absence of chemical substance: 2.5
Yeast gene YNL331C
  The level of expressed mRNA in the presence of chemical substance/The level of expressed mRNA in the absence of chemical substance: 3.6
Yeast gene YOL086C, cells incubated two hours with the chemical substance
  The level of expressed mRNA in the presence of chemical substance/The level of expressed mRNA in the absence of chemical substance: 0.5
Yeast gene YOL165C
  The level of expressed mRNA in the presence of chemical substance/The level of expressed mRNA in the absence of chemical substance: 4.5
Yeast gene YOR142W, cells incubated two hours with the chemical substance
  The level of expressed mRNA in the presence of chemical substance/The level of expressed mRNA in the absence of chemical substance: 1.2
Yeast gene YOR178C, cells incubated two hours with the chemical substance
  The level of expressed mRNA in the presence of chemical substance/The level of expressed mRNA in the absence of chemical substance: 1.3
Yeast gene YOR388C, cells incubated two hours with the chemical substance
  The level of expressed mRNA in the presence of chemical substance/The level of expressed mRNA in the absence of chemical substance: 1.6
Yeast gene YPL031C, cells incubated two hours with the chemical substance
  The level of expressed mRNA in the presence of chemical substance/The level of expressed mRNA in the absence of chemical substance: 2.0
Yeast gene YPL061W, cells incubated two hours with the chemical substance
  The level of expressed mRNA in the presence of chemical substance/The level of expressed mRNA in the absence of chemical substance: 1.4
Yeast gene YPL088W
  The level of expressed mRNA in the presence of chemical substance/The level of expressed mRNA in the absence of chemical substance: 1.3
Yeast gene YPL171C
  The level of expressed mRNA in the presence of chemical substance/The level of expressed mRNA in the absence of chemical substance: 4.1
Yeast gene YPL240C
  The level of expressed mRNA in the presence of chemical substance/The level of expressed mRNA in the absence of chemical substance: 1.4
Yeast gene YPL262W, cells incubated two hours with the chemical substance
  The level of expressed mRNA in the presence of chemical substance/The level of expressed mRNA in the absence of chemical substance: 1.7
Yeast gene YPL275W, cells incubated two hours with the chemical substance
  The level of expressed mRNA in the presence of chemical substance/The level of expressed mRNA in the absence of chemical substance: 1.5
Yeast gene YPL276W, cells incubated two hours with the chemical substance
  The level of expressed mRNA in the presence of chemical substance/The level of expressed mRNA in the absence of chemical substance: 1.5
Yeast gene YPR048W, cells incubated two hours with the chemical substance
  The level of expressed mRNA in the presence of chemical substance/The level of expressed mRNA in the absence of chemical substance: 2.0
Yeast gene YPR184W, cells incubated two hours with the chemical substance
  The level of expressed mRNA in the presence of chemical substance/The level of expressed mRNA in the absence of chemical substance: 1.4
